Values quoted from earlier work as cited in patent US8586054B2, “Method for modulating, treating and/or preventing metabolic syndrome using MAS-G-protein-coupled receptor agonists” (Max-Delbruck-Centrum fur Molekulare Medizin, priority 2006, dated 2013).

Assays:
[1] = LIFE study; compared with atenolol
[2] = HOPE study; versus placebo
[3] = VALUE study; hypertensive patients, valsartan versus amlodipine

CCCCc1nc(Cl)c(CO)n1Cc1ccc(-c2ccccc2-c2nn[nH]n2)cc1 [Losartan]
reduction in the appearance of new cases of diabetes [1]: 25%

CCOC(=O)[C@H](CCc1ccccc1)N[C@@H](C)C(=O)N1[C@H](C(=O)O)C[C@@H]2CCC[C@@H]21 [ramipril]
incidence of diabetes lower than in the group that received placebo [2]: 34%

CCCCC(=O)N(Cc1ccc(-c2ccccc2-c2nnn[nH]2)cc1)[C@H](C(=O)O)C(C)C [valsartan]
reduction in new cases of diabetes [3]: 23%
